# Biological target: T1, human GR (Homo sapiens, UniProt P04150)
# T1 sequence (P04150 1-777): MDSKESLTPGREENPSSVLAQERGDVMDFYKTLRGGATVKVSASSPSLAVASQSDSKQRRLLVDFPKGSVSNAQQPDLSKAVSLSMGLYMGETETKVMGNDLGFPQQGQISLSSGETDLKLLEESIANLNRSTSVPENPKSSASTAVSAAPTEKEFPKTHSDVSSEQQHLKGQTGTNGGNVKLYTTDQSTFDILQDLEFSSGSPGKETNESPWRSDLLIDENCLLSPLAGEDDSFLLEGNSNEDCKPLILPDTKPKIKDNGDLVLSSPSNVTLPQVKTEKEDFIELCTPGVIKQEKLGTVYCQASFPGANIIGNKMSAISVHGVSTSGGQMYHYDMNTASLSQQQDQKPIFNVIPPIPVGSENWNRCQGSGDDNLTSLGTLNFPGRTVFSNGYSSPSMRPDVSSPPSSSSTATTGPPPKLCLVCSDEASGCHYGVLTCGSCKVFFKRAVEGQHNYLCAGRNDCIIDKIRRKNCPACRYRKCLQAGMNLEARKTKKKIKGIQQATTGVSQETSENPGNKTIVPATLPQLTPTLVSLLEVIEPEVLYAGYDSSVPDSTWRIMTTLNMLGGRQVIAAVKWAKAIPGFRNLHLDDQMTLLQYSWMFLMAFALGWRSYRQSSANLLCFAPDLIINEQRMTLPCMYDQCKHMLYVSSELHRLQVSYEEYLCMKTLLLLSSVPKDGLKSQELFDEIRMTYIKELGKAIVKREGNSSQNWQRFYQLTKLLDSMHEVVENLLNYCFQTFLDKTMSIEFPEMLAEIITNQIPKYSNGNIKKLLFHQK
# Experiment: Trans-Activation Modulation of Glucocorticoid Receptor (GRAMMER), MMTV-LUC reporter gene
# Format: cell-based
# Design: endogenous in cells
# Settings: for Emax: A549, read-out: Transactivation A549 Cells GRAMMER Emax (%); for EC50: Table 1, A549 cells, IP = inflection point, read-out: Transactivation A549 Cells GRAMMER IP
Emax [%],EC50 [µM],SMILES
13,0.211,"C[C@]12Cc3cnn(-c4ccc(F)cc4)c3C=C1CC[C@@]2(O)CCc1cccc(F)c1CNS(=O)(=O)CC(F)(F)F [Example 86, 2,2,2-trifluoro-N-(2-fluoro-6-{2-[(4αS,5R)-1-(4-fluorophenyl)-5-hydroxy-4α-methyl-1,4,4α,5,6,7-hexahydrocyclopenta[f]indazol-5-yl]ethyl}benzyl)ethanesulfonamide]"
41,0.118,"CCS(=O)(=O)c1ccccc1CC[C@]1(O)CCC2=Cc3c(cnn3-c3ccc(F)cc3)C[C@@]21C [Example 143, (4αS,5R)-5-{2-[2-(ethylsulfonyl)phenyl]ethyl}-1-(4-fluorophenyl)-4α-methyl-1,4,4α,5,6,7-hexahydrocyclopenta[f]indazol-5-ol]"
49,0.028,"COc1cccc(CC[C@]2(O)CCC3=Cc4c(cnn4-c4ccc(F)cc4)C[C@@]32C)c1C(N)=O [Example 189, 2-{2-[(4αS,5R)-1-(4-fluorophenyl)-5-hydroxy-4α-methyl-1,4,4α,5,6,7-hexahydrocyclopenta[f]indazol-5-yl]ethyl}-6-methoxybenzamide]"
46,0.127,"C[C@]12Cc3cnn(-c4ccc(F)cc4)c3C=C1CC[C@@]2(O)CCc1ccccc1S(C)(=O)=O [Example 19, (4αS,5R)-1-(4-fluorophenyl)-4α-methyl-5-{2-[2-(methylsulfonyl)phenyl]ethyl}-1,4,4α,5,6,7-hexahydrocyclopenta[f]indazol-5-ol]"
23,0.05,"CCS(=O)(=O)NCc1c(F)cccc1CC[C@]1(O)CCC2=Cc3c(cnn3-c3ccc(F)cc3)C[C@@]21C [Example 84, N-(2-fluoro-6-{2-[(4αS,5R)-1-(4-fluorophenyl)-5-hydroxy-4α-methyl-1,4,4α,5,6,7-hexahydrocyclopenta[f]indazol-5-yl]ethyl}benzyl)ethanesulfonamide]"
39,0.29,"C[C@]12Cc3cnn(-c4ccc(F)cc4)c3C=C1CC[C@@]2(O)CCc1ccccc1N1CCC1=O [Example 11, 1-(2-{2-[(4αS,5R)-1-(4-fluorophenyl)-5-hydroxy-4α-methyl-1,4,4α,5,6,7-hexahydrocyclopenta[f]indazol-5-yl]ethyl}phenyl)azetidin-2-one]"
40,0.108,"CC(C)(C)NC(=O)c1c(F)cccc1CC[C@]1(O)CCC2=Cc3c(cnn3-c3ccc(F)cc3)C[C@@]21C [Example 59, N-(tert-butyl)-2-fluoro-6-{2-[(4αS,5R)-1-(4-fluorophenyl)-5-hydroxy-4α-methyl-1,4,4α,5,6,7-hexahydrocyclopenta[f]indazol-5-yl]ethyl}benzamide]"
40,0.138,"C[C@]12Cc3cnn(-c4ccc(F)cc4)c3C=C1CC[C@@]2(O)CCc1ccccc1CNS(=O)(=O)C1CC1 [Example 5, N-(2-{2-[(4αS,5R)-1-(4-fluorophenyl)-5-hydroxy-4α-methyl-1,4,4α,5,6,7-hexahydrocyclopenta[f]indazol-5-yl]ethyl}benzyl)cyclopropanesulfonamide]"
24,0.234,"C[C@]12Cc3cnn(-c4ccc(F)cc4)c3C=C1CC[C@@]2(O)CCc1ccc(Cl)cc1C(N)=O [Example 170, 5-chloro-2-{2-[(4αS,5R)-1-(4-fluorophenyl)-5-hydroxy-4α-methyl-1,4,4α,5,6,7-hexahydrocyclopenta[f]indazol-5-yl]ethyl}benzamide]"
44,0.223,"C[C@]12Cc3cnn(-c4ccc(F)cc4)c3C=C1CC[C@@]2(O)CCc1cccc(F)c1[C@@H](N)C(F)(F)F [Example 152, (4αS,5R)-5-(2-{2-[(1R)-1-amino-2,2,2-trifluoroethyl]-3-fluorophenyl}ethyl)-1-(4-fluorophenyl)-4α-methyl-1,4,4α,5,6,7-hexahydrocyclopenta[f]indazol-5-ol]"
51,0.074,"C[C@]12Cc3cnn(-c4ccccc4)c3C=C1CC[C@@]2(O)CCc1ccccc1C(=O)NC1CC1 [Example 42, N-cyclopropyl-2-{2-[(4αS,5R)-5-hydroxy-4α-methyl-1-phenyl-1,4,4α,5,6,7-hexahydrocyclopenta[f]indazol-5-yl]ethyl}benzamide]"
43,0.221,"CCS(=O)(=O)Nc1ccccc1CC[C@]1(O)CCC2=Cc3c(cnn3-c3ccc(F)cc3)C[C@@]21C [Example 114, N-(2-{2-[(4αS,5R)-1-(4-fluorophenyl)-5-hydroxy-4α-methyl-1,4,4α,5,6,7-hexahydrocyclopenta[f]indazol-5-yl]ethyl}phenyl)ethanesulfonamide]"
38,0.099,"C[C@]12Cc3cnn(-c4ccc(F)cc4)c3C=C1CC[C@@]2(O)CCc1cccc(F)c1CC(N)=O [Example 194, 2-(2-fluoro-6-{2-[(4αS,5R)-1-(4-fluorophenyl)-5-hydroxy-4α-methyl-1,4,4α,5,6,7-hexahydrocyclopenta[f]indazol-5-yl]ethyl}phenyl)acetamide]"
24,0.095,"C=C(C)CNC(=O)c1c(F)cccc1CC[C@]1(O)CCC2=Cc3c(cnn3-c3ccc(F)cc3)C[C@@]21C [Example 44, 2-fluoro-6-{2-[(4αS,5R)-1-(4-fluorophenyl)-5-hydroxy-4α-methyl-1,4,4α,5,6,7-hexahydrocyclopenta[f]indazol-5-yl]ethyl}-N-(2-methylprop-2-en-1-yl)benzamide]"
20,0.253,"CC(C(N)=O)c1ccccc1CC[C@]1(O)CCC2=Cc3c(cnn3-c3ccc(F)cc3)C[C@@]21C (single isomer, unassigned) [Example 196]"
36,0.268,"CNC(=O)Cc1ccccc1CC[C@]1(O)CCC2=Cc3c(cnn3-c3ccc(F)cc3)C[C@@]21C [Example 23, 2-(2-{2-[(4αS,5R)-1-(4-fluorophenyl)-5-hydroxy-4α-methyl-1,4,4α,5,6,7-hexahydrocyclopenta[f]indazol-5-yl]ethyl}phenyl)-N-methylacetamide]"
36,0.083,"CCC(O)(C(N)=O)c1ccccc1CC[C@]1(O)CCC2=Cc3c(cnn3-c3ccc(F)cc3)C[C@@]21C (stereo partly drawn) [Example 199, 2-(2-{2-[(4αS,5R)-1-(4-fluorophenyl)-5-hydroxy-4α-methyl-1,4,4α,5,6,7-hexahydrocyclopenta[f]indazol-5-yl]ethyl}phenyl)-2-hydroxybutanamide]"
